Laboratory results published in paper PMC4957513, “Functional Characterization of a Hexose Transporter from Root Endophyte Piriformospora indica” (Frontiers in Microbiology, 2016).

Assays:
[1] = molecular target: T1, PiHXT5 (Serendipita indica, UniProt G4TIR7); test: competition of […]-glucose uptake in yeast EBY.VW4000; type: cell-based; conditions: 25 μM 14C-glucose, five-fold excess of unlabelled sugar, 1 min, 30 °C; intact cells
T1 construct: gene PIIN_05137

[2] = molecular target: T1, PiHXT5; test: […]-glucose uptake in yeast EBY.VW4000, Michaelis-Menten fit; type: cell-based; conditions: pH 6.5, 50 mM potassium phosphate, 0.6 M sorbitol; intact cells; labelled compound; H+ symport; read-out: apparent Km

T1 sequence (G4TIR7 entry or part of it): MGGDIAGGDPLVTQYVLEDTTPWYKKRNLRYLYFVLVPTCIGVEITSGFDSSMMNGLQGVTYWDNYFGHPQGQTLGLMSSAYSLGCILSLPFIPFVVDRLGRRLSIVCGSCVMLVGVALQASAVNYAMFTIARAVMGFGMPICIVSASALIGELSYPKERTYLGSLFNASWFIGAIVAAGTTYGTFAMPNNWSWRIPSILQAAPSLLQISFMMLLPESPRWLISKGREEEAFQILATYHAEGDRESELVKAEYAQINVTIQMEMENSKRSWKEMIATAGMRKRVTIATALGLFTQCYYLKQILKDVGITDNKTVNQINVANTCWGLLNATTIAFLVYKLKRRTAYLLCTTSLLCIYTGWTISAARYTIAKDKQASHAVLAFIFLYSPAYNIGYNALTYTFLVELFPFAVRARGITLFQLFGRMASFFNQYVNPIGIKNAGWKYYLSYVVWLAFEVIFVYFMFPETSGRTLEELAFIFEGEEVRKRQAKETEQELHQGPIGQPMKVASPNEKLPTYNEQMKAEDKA

Structure (SMILES) | % of control 14C-glucose uptake at five-fold excess [1] | Km [2]
OCC1(O)OC[C@@H](O)[C@@H](O)[C@@H]1O (stereo partly drawn) [D-fructose] | PiHXT5 is able to transport Glc, Fru, Xyl, Man, and Gal with decreasing affinity | 
OC[C@H]1OC(O)[C@H](O)[C@@H](O)[C@H]1O (stereo partly drawn) [D-galactose] | PiHXT5 is able to transport Glc, Fru, Xyl, Man, and Gal with decreasing affinity | 
OC[C@H]1OC(O)[C@H](O)[C@@H](O)[C@@H]1O (stereo partly drawn) [D-glucose] |  | 2560 ± 180 µM
OC[C@H]1OC(O)[C@@H](O)[C@@H](O)[C@@H]1O (stereo partly drawn) [D-mannose] | PiHXT5 is able to transport Glc, Fru, Xyl, Man, and Gal with decreasing affinity | 
OC1OC[C@@H](O)[C@H](O)[C@H]1O (stereo partly drawn) [D-xylose] | PiHXT5 is able to transport Glc, Fru, Xyl, Man, and Gal with decreasing affinity | 
